# Structures can show the parent of a compound that is named as a salt. ± gives the standard deviation of the averaged measurements.
# System: RD
# Assay: relative viability vs DMSO control (72 h) (fraction); higher = more viable cells
# How it was run: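 Sarcoma cell lines in 384-well plates, seeded to reach 80–90% confluence, were given compound after 24 h and kept 72 h at 37 °C, 5% CO2, with 0.1% DMSO vehicle and a 5 µM positive control. Relative viability came from ATPLite as percent growth, averaged over up to triplicate wells. On the rescaled values, 1 equals full and 0 equals none.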
Compound,relative viability (2 pM),relative viability (5 pM),relative viability (15 pM),relative viability (50 pM),relative viability (0.00014 µM),relative viability (0.00041 µM),relative viability (0.0012 µM),relative viability (0.0037 µM),relative viability (0.011 µM),relative viability (200 fM),relative viability (600 fM),relative viability (0.00017 µM),relative viability (0.00051 µM),relative viability (0.00152 µM),relative viability (0.00457 µM),relative viability (0.01372 µM),relative viability (0.04115 µM),relative viability (0.1235 µM),relative viability (0.3704 µM),relative viability (1.111 µM),relative viability (3.333 µM),relative viability (10 µM)
COc1cc2c(cc1O)CCN[C@]21CS[C@@H]2c3c(OC(C)=O)c(C)c4c(c3[C@H](COC1=O)N1[C@@H]2[C@H]2c3c(cc(C)c(OC)c3O)C[C@@H]([C@@H]1O)N2C)OCO4 [Trabectedin],1.08 ± 0.055,1.08 ± 0.068,1.08 ± 0.048,1 ± 0.045,0.678 ± 0.022,0.166 ± 0.14,0.158 ± 0.0037,0.128 ± 0.0033,0.104 ± 0.01,1.1 ± 0.043,1.08 ± 0.015,,,,,,,,,,,
CN1CCN(c2ccc3nc(-c4c(N)c5c(F)cccc5[nH]c4=O)[nH]c3c2)CC1 [Dovitinib],,,,,,,,,,,,0.963 ± 0.05,0.983 ± 0.064,0.991 ± 0.072,0.985 ± 0.053,0.978 ± 0.099,0.995 ± 0.074,0.998 ± 0.071,0.99 ± 0.072,0.812 ± 0.073,0.632 ± 0.05,0.113 ± 0.035
C[C@@H]1COCCN1c1cc(-c2ccnn2C)c2ccnc(-c3ccn[nH]3)c2n1,,,,,,,,,,,,1.08 ± 0.059,1.09 ± 0.027,1.09 ± 0.083,1.12 ± 0.065,1.1 ± 0.037,1.08 ± 0.046,0.93 ± 0.03,0.627 ± 0.025,0.378 ± 0.018,0.23 ± 0.017,0.188 ± 0.011
Cn1cc(-c2cc3c(N4CCN(c5ncc([C@@](C)(N)c6ccc(F)cc6)cn5)CC4)ncnn3c2)cn1 [Avapritinib],,,,,,,,,,,,1.04 ± 0.055,1.03 ± 0.031,1.06 ± 0.02,1.05 ± 0.041,1.05 ± 0.033,1.03 ± 0.045,1.04 ± 0.02,1.06 ± 0.043,1.03 ± 0.043,0.939 ± 0.03,0.813 ± 0.087
C[C@]1(O)C[C@@H](c2nc(-c3ccc4ccc(-c5ccccc5)nc4c3)c3c(N)nccn32)C1 [Linsitinib],,,,,,,,,,,,1.03 ± 0.04,1.09 ± 0.066,1.1 ± 0.047,1.06 ± 0.05,1.039 ± 0.0018,1.03 ± 0.035,0.875 ± 0.048,0.672 ± 0.0074,0.639 ± 0.028,0.633 ± 0.02,0.568 ± 0.0034
Cc1nc(NC(=O)N2CCC[C@H]2C(N)=O)sc1-c1ccnc(C(C)(C)C(F)(F)F)c1 [Alpelisib],,,,,,,,,,,,1.04 ± 0.032,1.068 ± 0.0091,1.04 ± 0.056,1.07 ± 0.041,1.05 ± 0.052,1.03 ± 0.1,0.932 ± 0.045,0.851 ± 0.083,0.7 ± 0.055,0.594 ± 0.024,0.557 ± 0.044
COc1cccc2c1C(=O)c1c(O)c3c(c(O)c1C2=O)C[C@@](O)(C(=O)CO)C[C@@H]3O[C@H]1C[C@H](N)[C@H](O)[C@H](C)O1 [Doxorubicin Hydrochloride],,,,,,,,,,,,1.12 ± 0.074,1.09 ± 0.068,1.12 ± 0.069,1.08 ± 0.072,1.1 ± 0.028,0.892 ± 0.011,0.556 ± 0.019,0.214 ± 0.015,0.0954 ± 0.008,0.0741 ± 0.0052,0.0196 ± 0.00075
CNC(=O)c1ccc(-c2cnc3ncc(Cc4ccc5ncccc5c4)n3n2)cc1F [Capmatinib],,,,,,,,,,,,1.11 ± 0.025,1.1 ± 0.053,1.13 ± 0.037,1.15 ± 0.065,1.12 ± 0.028,1.12 ± 0.042,1.13 ± 0.077,1.14 ± 0.053,1.15 ± 0.072,1.13 ± 0.12,1.1 ± 0.1
Cc1ccc(NC(=O)c2ccc(CN3CCN(C)CC3)cc2)cc1Nc1nc(-c2cccnc2)cs1 [Masitinib],,,,,,,,,,,,0.967 ± 0.042,0.962 ± 0.054,0.995 ± 0.039,1.03 ± 0.091,1.01 ± 0.096,0.995 ± 0.091,0.995 ± 0.1,0.976 ± 0.1,0.872 ± 0.074,0.587 ± 0.05,0.13 ± 0.02
C[C@@H](c1ccc2nccn2c1)n1nnc2ncc(-c3cnn(C)c3)nc21 [Volitinib],,,,,,,,,,,,1.11 ± 0.027,1.11 ± 0.036,1.14 ± 0.03,1.12 ± 0.039,1.11 ± 0.022,1.1 ± 0.02,1.14 ± 0.016,1.14 ± 0.023,1.09 ± 0.017,1.07 ± 0.037,1.02 ± 0.037
CC(C)(C)c1cc(NC(=O)Nc2ccc(-c3cn4c(n3)sc3cc(OCCN5CCOCC5)ccc34)cc2)no1 [Quizartinib],,,,,,,,,,,,1.08 ± 0.04,1.07 ± 0.036,1.08 ± 0.035,1.08 ± 0.06,1.07 ± 0.035,1.06 ± 0.025,1.07 ± 0.05,1.05 ± 0.055,1.04 ± 0.025,0.942 ± 0.1,0.922 ± 0.065
CC(C)N1CCN(Cc2cnc(-c3cc(-c4cccc5[nH]ccc45)cc4[nH]ncc34)o2)CC1 [Nemiralisib],,,,,,,,,,,,0.931 ± 0.024,0.951 ± 0.017,0.916 ± 0.051,0.955 ± 0.025,0.941 ± 0.025,0.937 ± 0.011,0.964 ± 0.016,0.902 ± 0.028,0.83 ± 0.01,0.692 ± 0.053,0.128 ± 0.083
C=CC(=O)N1CCC[C@@H](n2nc(-c3ccc(Oc4ccccc4)cc3)c3c(N)ncnc32)C1 [Ibrutinib],,,,,,,,,,,,1.08 ± 0.04,1.11 ± 0.053,1.09 ± 0.032,1.13 ± 0.07,1.14 ± 0.063,1.12 ± 0.054,1.15 ± 0.062,1.15 ± 0.079,1.14 ± 0.083,1.13 ± 0.037,0.984 ± 0.058
CN1CCC(COc2cnc(-c3cccc(Cn4nc(-c5cccc(C#N)c5)ccc4=O)c3)nc2)CC1 [Tepotinib],,,,,,,,,,,,1.03 ± 0.049,1.1 ± 0.084,1.09 ± 0.039,1.1 ± 0.055,1.12 ± 0.031,1.13 ± 0.049,1.12 ± 0.093,1.14 ± 0.029,1.1 ± 0.065,1.11 ± 0.031,0.941 ± 0.07
C[C@@H]1CCN(C(=O)CC#N)C[C@@H]1N(C)c1ncnc2[nH]ccc12 [Tofacitinib],,,,,,,,,,,,1.05 ± 0.051,1.08 ± 0.064,1.1 ± 0.072,1.12 ± 0.055,1.13 ± 0.068,1.13 ± 0.063,1.13 ± 0.09,1.11 ± 0.029,1.14 ± 0.065,1.14 ± 0.051,1.13 ± 0.056
Cc1cc(Nc2ncnc3ccc(NC4=NC(C)(C)CO4)cc23)ccc1Oc1ccn2ncnc2c1 [Tucatinib],,,,,,,,,,,,1.08 ± 0.071,1.09 ± 0.076,1.11 ± 0.04,1.08 ± 0.04,1.1 ± 0.026,1.1 ± 0.017,1.07 ± 0.067,1.11 ± 0.073,1.14 ± 0.081,1.18 ± 0.063,1.15 ± 0.061
O=C(Nc1cnn2ccc(N3CCC[C@@H]3c3cc(F)ccc3F)nc12)N1CC[C@H](O)C1 [Larotrectinib],,,,,,,,,,,,1.07 ± 0.035,1.092 ± 0.0046,1.09 ± 0.059,1.1 ± 0.05,1.11 ± 0.042,1.1 ± 0.11,1.13 ± 0.051,1.12 ± 0.073,1.13 ± 0.037,1.1 ± 0.068,1.09 ± 0.12
C=CC(=O)N1CCC([C@@H]2CCNc3c(C(N)=O)c(-c4ccc(Oc5ccccc5)cc4)nn32)CC1 [Zanubrutinib],,,,,,,,,,,,0.942 ± 0.064,0.952 ± 0.048,0.964 ± 0.068,0.958 ± 0.058,0.952 ± 0.046,0.96 ± 0.079,0.926 ± 0.075,0.893 ± 0.11,0.876 ± 0.1,0.847 ± 0.081,0.843 ± 0.06
CO[C@H]1C[C@@H]2CC[C@@H](C)[C@@](O)(O2)C(=O)C(=O)N2CCCC[C@H]2C(=O)O[C@H]([C@H](C)C[C@@H]2CC[C@@H](OP(C)(C)=O)[C@H](OC)C2)CC(=O)[C@H](C)/C=C(\C)[C@@H](O)[C@@H](OC)C(=O)[C@H](C)C[C@H](C)/C=C/C=C/C=C/1C [Ridaforolimus],,,,,,,,,,,,1.06 ± 0.032,1.05 ± 0.049,0.921 ± 0.01,0.847 ± 0.02,0.753 ± 0.038,0.75 ± 0.036,0.764 ± 0.029,0.71 ± 0.053,0.715 ± 0.071,0.701 ± 0.053,0.683 ± 0.05

# — the supplement of paper PMC10883282
